Data published in ChEMBL document CHEMBL1152135, “New synthesis and evaluation of enantiomers of 7-methyl-2-exo-(3'-iodo-5'-pyridinyl)-7-azabicyclo[2.2.1]heptane as stereoselective ligands for PET imaging of nicotinic acetylcholine receptors” (Bioorg Med Chem Lett, 2008).

Test: Displacement of [3H]epibatine from nAChR in rat cortical membrane
Format: cell membranes

**Q.** With `CN1[C@@H]2CC[C@@H]1[C@@H](c1cncc(I)c1)C2` (stereo in doubt; (+)-5) as the compound, how does the Ki read?
**A.** 0.055 nM

**Q.** With `Ic1cncc([C@H]2C[C@H]3CC[C@H]2N3)c1` (stereo in doubt; (-)-4) as the compound, how does the Ki read?
**A.** 0.045 nM

**Q.** For `Clc1ccc(C2CC3CCC2N3)cn1` (stereo not given) [EPIBATIDINE], which Ki is on record?
**A.** 0.046 nM

**Q.** With `CN1[C@@H]2CC[C@@H]1[C@@H](c1cncc(I)c1)C2` (stereo in doubt; (-)-5) as the compound, how does the Ki read?
**A.** 1.68 nM

**Q.** Which Ki does the source give for `Ic1cncc([C@H]2C[C@H]3CC[C@H]2N3)c1` (stereo in doubt; (+)-4) here?
**A.** 0.048 nM
